Experimental data as given in patent publication US9770026B2, “Substituted pyrimidine compound and uses thereof” (Shenyang Sinochem Agrochemicals R&D Co., Ltd., priority 2012, dated 2017).

What follows are compounds tested on cucumber gray mold (assay: fungicidal activity in vitro (inhibition rate) against cucumber gray mold). Details: 25 ppm, in vitro; read-out: inhibition rate against cucumber gray mold.
Format: cell-based

Compound | inhibition at 25 ppm
FC(F)(F)c1ccc(Oc2ccc(CCNc3ncnc(Cl)c3Cl)cc2)nc1 [CK73, reference compound] | 0%
FC(F)(F)c1cccnc1Oc1ccc(CCNc2nc(Cl)ncc2Cl)cc1 [CK81, reference compound] | 0%
FC(F)(F)c1cccnc1Oc1ccc(CCNc2cc(Cl)nc(Cl)n2)cc1 [CK82, reference compound] | 0%
N#Cc1ccc(Oc2ccc(CCNc3cc(Cl)ncn3)cc2)nc1 [CK83, reference compound] | 0%
Cc1nc(Cl)cc(NCCc2ccc(Oc3ccc(C#N)cn3)cc2)n1 [CK84, reference compound] | 0%

These compounds were tested on Diamond back moth (assay: insecticidal activity against diamond back moth, airbrush spray). Details: 72 h, 600 mg/L.
Format: in vivo
Procedure, shortened: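 Airbrush leaf-disc spray test: both faces of 2 cm cabbage discs received 0.5 ml of test solution at 0.7 kg/cm^2. Solutions were made in acetone:methanol (1:1) and brought to concentration with 0.1% Tween 80 in water. Ten second-instar larvae per disc, triplicates, were held at 25° C and 60˜70% R.H., with mortality recorded at 72 hrs.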

Compound | pest or weed control at 600 µg/mL
FC(F)(F)c1cccnc1Oc1ccc(CCNc2nc(Cl)ncc2Cl)cc1 [CK81, reference compound] | 0%
FC(F)(F)c1cccnc1Oc1ccc(CCNc2cc(Cl)nc(Cl)n2)cc1 [CK82, reference compound] | 17%
N#Cc1ccc(Oc2ccc(CCNc3cc(Cl)ncn3)cc2)nc1 [CK83, reference compound] | 17%
Cc1nc(Cl)cc(NCCc2ccc(Oc3ccc(C#N)cn3)cc2)n1 [CK84, reference compound] | 0%

The compounds below were run on carmine spider mite (assay: bioactivity test against carmine spider mite, airbrush spray). Details: Tetranychus cinnabarinus, 72 h, 10 mg/L; contrastive test; read-out: Insecticidal activity against carmine spider mite (% ).
Format: in vivo
Procedure, shortened: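 Broadbean seedlings infested with adult mites were sprayed with compound (acetone/methanol stock diluted in 0.1% Tween 80 water) by airbrush at 0.7 kg/cm^2, 0.5 ml. Three replicates were run. Mortality was scored after 72 hrs.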

Compound | pest or weed control at 10 µg/mL
FC(F)(F)c1ccc(Oc2ccc(CCNc3ncnc(Cl)c3Cl)cc2)nc1 [CK73, reference compound] | 24%
Cc1nc(Cl)cc(NCCc2ccc(Oc3ccc(C#N)cn3)cc2)n1 [CK84, reference compound] | 0%

Same assay, conditions: Tetranychus cinnabarinus, 72 h, 100 mg/L; contrastive test; read-out: Insecticidal activity against carmine spider mite (% )

Compound | pest or weed control at 100 µg/mL
FC(F)(F)c1ccc(Oc2ccc(CCNc3ncnc(Cl)c3Cl)cc2)nc1 [CK73, reference compound] | 85%
Cc1nc(Cl)cc(NCCc2ccc(Oc3ccc(C#N)cn3)cc2)n1 [CK84, reference compound] | 0%

Same assay, conditions: Tetranychus cinnabarinus, 72 h, 600 mg/L; contrastive test; read-out: Insecticidal activity against carmine spider mite (% )

Compound | pest or weed control at 600 µg/mL
FC(F)(F)c1ccc(Oc2ccc(CCNc3ncnc(Cl)c3Cl)cc2)nc1 [CK73, reference compound] | 100%
FC(F)(F)c1cccnc1Oc1ccc(CCNc2nc(Cl)ncc2Cl)cc1 [CK81, reference compound] | 0%
FC(F)(F)c1cccnc1Oc1ccc(CCNc2cc(Cl)nc(Cl)n2)cc1 [CK82, reference compound] | 23%
Cc1nc(Cl)cc(NCCc2ccc(Oc3ccc(C#N)cn3)cc2)n1 [CK84, reference compound] | 100%

Each compound was assayed on armyworm (assay: bioactivity test against armyworm, airbrush spray). Details: 72 h, 10 mg/L; read-out: Insecticidal activity against armyworm (%).
Format: in vivo

Compound | pest or weed control at 10 µg/mL
FC(F)(F)c1ccc(Oc2ccc(CCNc3ncnc(Cl)c3Cl)cc2)nc1 [CK73, reference compound] | 0%

Same assay, conditions: 72 h, 100 mg/L; read-out: Insecticidal activity against armyworm (%)

Compound | pest or weed control at 100 µg/mL
FC(F)(F)c1ccc(Oc2ccc(CCNc3ncnc(Cl)c3Cl)cc2)nc1 [CK73, reference compound] | 50%

Same assay, conditions: 72 h, 600 mg/L; read-out: Insecticidal activity against armyworm (%)

Compound | pest or weed control at 600 µg/mL
FC(F)(F)c1ccc(Oc2ccc(CCNc3ncnc(Cl)c3Cl)cc2)nc1 [CK73, reference compound] | 100%
FC(F)(F)c1cccnc1Oc1ccc(CCNc2nc(Cl)ncc2Cl)cc1 [CK81, reference compound] | 14%
FC(F)(F)c1cccnc1Oc1ccc(CCNc2cc(Cl)nc(Cl)n2)cc1 [CK82, reference compound] | 0%
N#Cc1ccc(Oc2ccc(CCNc3cc(Cl)ncn3)cc2)nc1 [CK83, reference compound] | 29%
Cc1nc(Cl)cc(NCCc2ccc(Oc3ccc(C#N)cn3)cc2)n1 [CK84, reference compound] | 0%

What follows are compounds tested on Green peach aphids (Myzus Persicae Sulzer) (assay: bioactivity test against green peach aphid, airbrush foliar spray). Details: Myzus persicae, foliar, 48 h, 10 mg/L; contrastive test; read-out: Insecticidal activity against peach aphid (%).
Format: in vivo
Procedure, shortened: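 Death rate was scored at 48 hrs, held at 25±1 C and 60±5% RH, following airbrush foliar spray (0.5 mL, 10 psi) onto cabbage leaf discs bearing about 15-30 aphids. Test solutions: compound dissolved in 1:1 acetone:methanol, brought to concentration with 0.1% tween 80 water.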

Compound | pest or weed control at 10 µg/mL
FC(F)(F)c1ccc(Oc2ccc(CCNc3ncnc(Cl)c3Cl)cc2)nc1 [CK73, reference compound] | 0%
FC(F)(F)c1cccnc1Oc1ccc(CCNc2cc(Cl)nc(Cl)n2)cc1 [CK82, reference compound] | 0%
N#Cc1ccc(Oc2ccc(CCNc3cc(Cl)ncn3)cc2)nc1 [CK83, reference compound] | 11%
Cc1nc(Cl)cc(NCCc2ccc(Oc3ccc(C#N)cn3)cc2)n1 [CK84, reference compound] | 7%

Same assay, conditions: Myzus persicae, foliar, 48 h, 100 mg/L; contrastive test; read-out: Insecticidal activity against peach aphid (%)

Compound | pest or weed control at 100 µg/mL
FC(F)(F)c1ccc(Oc2ccc(CCNc3ncnc(Cl)c3Cl)cc2)nc1 [CK73, reference compound] | 100%
N#Cc1ccc(Oc2ccc(CCNc3cc(Cl)ncn3)cc2)nc1 [CK83, reference compound] | 100%
Cc1nc(Cl)cc(NCCc2ccc(Oc3ccc(C#N)cn3)cc2)n1 [CK84, reference compound] | 43%

Same assay, conditions: Myzus persicae, foliar, 48 h, 600 mg/L; contrastive test; read-out: Insecticidal activity against peach aphid (%)

Compound | pest or weed control at 600 µg/mL
FC(F)(F)c1ccc(Oc2ccc(CCNc3ncnc(Cl)c3Cl)cc2)nc1 [CK73, reference compound] | 100%
FC(F)(F)c1cccnc1Oc1ccc(CCNc2nc(Cl)ncc2Cl)cc1 [CK81, reference compound] | 75%
FC(F)(F)c1cccnc1Oc1ccc(CCNc2cc(Cl)nc(Cl)n2)cc1 [CK82, reference compound] | 86%
N#Cc1ccc(Oc2ccc(CCNc3cc(Cl)ncn3)cc2)nc1 [CK83, reference compound] | 100%
Cc1nc(Cl)cc(NCCc2ccc(Oc3ccc(C#N)cn3)cc2)n1 [CK84, reference compound] | 100%

Each compound was assayed on wheat powdery mildew (assay: protectant activity in vivo against wheat powdery mildew). Details: Triticum aestivum, 168 h, read-out: control effect against wheat powdery mildew (%), 6.25 mg/L; protectant activity.

Compound | pest or weed control at 6.25 µg/mL
FC(F)(F)c1cccnc1Oc1ccc(CCNc2cc(Cl)nc(Cl)n2)cc1 [CK82, reference compound] | 0%
N#Cc1ccc(Oc2ccc(CCNc3cc(Cl)ncn3)cc2)nc1 [CK83, reference compound] | 40%

Same assay, conditions: Triticum aestivum, 168 h, read-out: control effect against wheat powdery mildew (%), 25 mg/L; protectant activity

Compound | pest or weed control at 25 µg/mL
FC(F)(F)c1cccnc1Oc1ccc(CCNc2cc(Cl)nc(Cl)n2)cc1 [CK82, reference compound] | 0%
N#Cc1ccc(Oc2ccc(CCNc3cc(Cl)ncn3)cc2)nc1 [CK83, reference compound] | 70%

Same assay, conditions: Triticum aestivum, 168 h, read-out: control effect against wheat powdery mildew (%), 100 mg/L; protectant activity

Compound | pest or weed control at 100 µg/mL
FC(F)(F)c1cccnc1Oc1ccc(CCNc2cc(Cl)nc(Cl)n2)cc1 [CK82, reference compound] | 80%
N#Cc1ccc(Oc2ccc(CCNc3cc(Cl)ncn3)cc2)nc1 [CK83, reference compound] | 100%

Same assay, conditions: Triticum aestivum, 168 h, read-out: control effect against wheat powdery mildew (%), 400 mg/L; protectant activity

Compound | pest or weed control at 400 µg/mL
FC(F)(F)c1ccc(Oc2ccc(CCNc3ncnc(Cl)c3Cl)cc2)nc1 [CK73, reference compound] | 40%
FC(F)(F)c1cccnc1Oc1ccc(CCNc2nc(Cl)ncc2Cl)cc1 [CK81, reference compound] | 40%
FC(F)(F)c1cccnc1Oc1ccc(CCNc2cc(Cl)nc(Cl)n2)cc1 [CK82, reference compound] | 100%
N#Cc1ccc(Oc2ccc(CCNc3cc(Cl)ncn3)cc2)nc1 [CK83, reference compound] | 100%

These compounds were tested on corn rust (assay: protectant activity in vivo against corn rust). Details: Zea mays, 168 h, read-out: control effect against corn rust (%), 6.25 mg/L; protectant activity.

Compound | pest or weed control at 6.25 µg/mL
FC(F)(F)c1ccc(Oc2ccc(CCNc3ncnc(Cl)c3Cl)cc2)nc1 [CK73, reference compound] | 0%
FC(F)(F)c1cccnc1Oc1ccc(CCNc2cc(Cl)nc(Cl)n2)cc1 [CK82, reference compound] | 0%
Cc1nc(Cl)cc(NCCc2ccc(Oc3ccc(C#N)cn3)cc2)n1 [CK84, reference compound] | 0%

Same assay, conditions: Zea mays, 168 h, read-out: control effect against corn rust (%), 25 mg/L; protectant activity

Compound | pest or weed control at 25 µg/mL
FC(F)(F)c1ccc(Oc2ccc(CCNc3ncnc(Cl)c3Cl)cc2)nc1 [CK73, reference compound] | 10%
FC(F)(F)c1cccnc1Oc1ccc(CCNc2cc(Cl)nc(Cl)n2)cc1 [CK82, reference compound] | 0%
Cc1nc(Cl)cc(NCCc2ccc(Oc3ccc(C#N)cn3)cc2)n1 [CK84, reference compound] | 60%

Same assay, conditions: Zea mays, 168 h, read-out: control effect against corn rust (%), 100 mg/L; protectant activity

Compound | pest or weed control at 100 µg/mL
FC(F)(F)c1ccc(Oc2ccc(CCNc3ncnc(Cl)c3Cl)cc2)nc1 [CK73, reference compound] | 90%
FC(F)(F)c1cccnc1Oc1ccc(CCNc2cc(Cl)nc(Cl)n2)cc1 [CK82, reference compound] | 30%
Cc1nc(Cl)cc(NCCc2ccc(Oc3ccc(C#N)cn3)cc2)n1 [CK84, reference compound] | 90%

Same assay, conditions: Zea mays, 168 h, read-out: control effect against corn rust (%), 400 mg/L; protectant activity

Compound | pest or weed control at 400 µg/mL
FC(F)(F)c1ccc(Oc2ccc(CCNc3ncnc(Cl)c3Cl)cc2)nc1 [CK73, reference compound] | 100%
FC(F)(F)c1cccnc1Oc1ccc(CCNc2nc(Cl)ncc2Cl)cc1 [CK81, reference compound] | 80%
FC(F)(F)c1cccnc1Oc1ccc(CCNc2cc(Cl)nc(Cl)n2)cc1 [CK82, reference compound] | 100%
N#Cc1ccc(Oc2ccc(CCNc3cc(Cl)ncn3)cc2)nc1 [CK83, reference compound] | 30%
Cc1nc(Cl)cc(NCCc2ccc(Oc3ccc(C#N)cn3)cc2)n1 [CK84, reference compound] | 100%

These compounds were tested on cucumber downy mildew (assay: protectant activity in vivo against cucumber downy mildew). Details: Cucumis sativus, 168 h, read-out: control effect against cucumber downy mildew (%), 25 mg/L; protectant activity.

Compound | pest or weed control at 25 µg/mL
FC(F)(F)c1ccc(Oc2ccc(CCNc3ncnc(Cl)c3Cl)cc2)nc1 [CK73, reference compound] | 60%
N#Cc1ccc(Oc2ccc(CCNc3cc(Cl)ncn3)cc2)nc1 [CK83, reference compound] | 85%
Cc1nc(Cl)cc(NCCc2ccc(Oc3ccc(C#N)cn3)cc2)n1 [CK84, reference compound] | 85%

Same assay, conditions: Cucumis sativus, 168 h, read-out: control effect against cucumber downy mildew (%), 50 mg/L; protectant activity

Compound | pest or weed control at 50 µg/mL
FC(F)(F)c1ccc(Oc2ccc(CCNc3ncnc(Cl)c3Cl)cc2)nc1 [CK73, reference compound] | 95%
N#Cc1ccc(Oc2ccc(CCNc3cc(Cl)ncn3)cc2)nc1 [CK83, reference compound] | 98%
Cc1nc(Cl)cc(NCCc2ccc(Oc3ccc(C#N)cn3)cc2)n1 [CK84, reference compound] | 100%

Same assay, conditions: Cucumis sativus, 168 h, read-out: control effect against cucumber downy mildew (%), 100 mg/L; protectant activity

Compound | pest or weed control at 100 µg/mL
FC(F)(F)c1ccc(Oc2ccc(CCNc3ncnc(Cl)c3Cl)cc2)nc1 [CK73, reference compound] | 98%
N#Cc1ccc(Oc2ccc(CCNc3cc(Cl)ncn3)cc2)nc1 [CK83, reference compound] | 100%
Cc1nc(Cl)cc(NCCc2ccc(Oc3ccc(C#N)cn3)cc2)n1 [CK84, reference compound] | 100%

Same assay, conditions: Cucumis sativus, 168 h, read-out: control effect against cucumber downy mildew (%), 400 mg/L; protectant activity

Compound | pest or weed control at 400 µg/mL
FC(F)(F)c1ccc(Oc2ccc(CCNc3ncnc(Cl)c3Cl)cc2)nc1 [CK73, reference compound] | 98%
N#Cc1ccc(Oc2ccc(CCNc3cc(Cl)ncn3)cc2)nc1 [CK83, reference compound] | 100%
Cc1nc(Cl)cc(NCCc2ccc(Oc3ccc(C#N)cn3)cc2)n1 [CK84, reference compound] | 100%
